Columns and labels:
[1] = system: C8161 human melanoma cells; test: Cell cycle analysis (propidium iodide flow cytometry); type: cell-based; conditions: for Sub G1: 8 Gy, 25 uM riluzole, average of 3 experiments
Experimental: Cell pellets were fixed by drop-wise addition of ice-cold 70% ethanol and incubated overnight at 4° C. Fixed cells were washed twice with ice-cold PBS and resuspended in […] PBS. […] The experiment was repeated 3 times.

[2] = system: LN229 cells; test: ROS measurement by flow cytometry (2′,7′-dichlorodihydrofluorescein diacetate); type: cell-based; conditions: 10 uM riluzole for various time periods versus vehicle
Experimental: (§1) The cells were incubated with 2′,7′-dichlorodihydrofluorescein diacetate (Sigma) for 20 min at 37 deg.

[3] = system: U87MG cells; test: as above; type: cell-based; conditions: 10 uM riluzole for various time periods versus vehicle
Experimental: as §1

[4] = system: C8161 xenografts
Experimental: Immunodeficient nude mice were purchased from Taconic. C8161 cells were injected into flanks bilaterally at 10^6 cells per site.

[5] = system: U118MG cell line; test: Western immunoblot for cleaved PARP; type: cell-based; conditions: experiments repeated as for U87MG
[6] = system: glioma cells; test: γ-H2AX Western blot and γ-H2AX/53BP1 immunofluorescence; type: cell-based
[7] = system: LN229 cell line; test: Western immunoblot for cleaved PARP; type: cell-based; conditions: experiments repeated as for U87MG
[8] = system: D3-mGRM1 cells; test: Immunofluorescence for 53BP1 and γ-H2AX foci in apoptosis-deficient cells; type: cell-based, mouse; conditions: treated for various time points up to 24 hours
Source text: (§2) These treated cells were stained with γ-H2AX and 53BP1, both known to localize at sites of DNA double stranded breaks.

[9] = system: D3-vec cells; test: as above; type: cell-based, mouse; conditions: empty vector controls; treated for various time points up to 24 hours
Source text: as §2

[10] = system: C8161 hGRM1-positive human melanoma cells; conditions: riluzole plus irradiation (2 or 4 Gy) compared with irradiation alone
Experimental: Both sets of cells were irradiated at 2 or 4 Gy. Lysates were made at 24, 48, or 72 hours after irradiation. Protein lysates were prepared by washing cells with PBS, adding extraction buffer [50 mmol/L Tris, 150 mmol/L NaCl, 1 mmol/L EDTA (pH 8.0)], 1% NP40, 5% glycerol, 1 mmol/L Dithiothreitol, complete protease inhibitor cocktail (Roche), and phosphatase inhibitors I and II (Sigma). The samples were resolved in 10% gels (Bio-Rad), after which they were transferred onto nitrocellulose membranes. Membranes were blocked with 5% milk and 1% bovine serum albumin and then probed with antibodies against PARP and cleaved caspase-3. The same blot was probed with alpha-tubulin to show equal loading.
Cells were either treated with IR at 2 Gy (2) or 4 GY (4) or not treated (0). Lysates were made immediately after IR or at 24 hours after IR and probed with anti-PARP and anticleaved PARP antibodies to assess apoptotic cells. The same blot was probed with a-tubulin to show equal loading.

[11] = system: hGRM1-positive C8161 human melanoma cells; conditions: riluzole for 24 hours, then ionizing radiation; PE=12%
Experimental: (§3) hGRM1-expressing C8161 [wild type (wt) for RAS and BRAF] and UACC903 (wt for RAS, mutated B-RAF, V600E) human melanoma cell line and hGRM1-negative melanoma cell line UACC930 (wt for RAS, mutated B-RAF, V600E), were obtained from Dr. Mary J. C. Hendrix (Children's Memorial Research Center, Chicago, IL) and Dr. Jeffrey M. Trent (Translational Genomics Research Center, Phoenix, AZ), respectively. Cells were cultured in monolayer at 37° C. in a 5% CO2 humidified incubator, in RPMI (InVitrogen) supplemented with 10% fetal bovine serum (Sigma).
(§4) Cells were trypsinized for retrieval and plated on 100-mm plates and allowed to attach overnight for 20 hours. […] Cells were irradiated by a Gamma Cell 40 Exactor (MDS Nordion) irradiator and then incubated overnight (20 hours). Drug was aspirated and culture media replaced at 20 hours. Plates were then monitored for 10 to 21 days and stained with crystal violet for visual counting. Colonies which contained more than 50 cells were scored as clonogenic survivors.
(§5) All clonogenic assays and cell cycle analyses experiments were repeated 3 times and the triplicate results are shown.

[12] = system: hGRM1-positive UACC903 human melanoma cells; conditions: riluzole for 24 hours, then ionizing radiation; PE=19%
Experimental: as §3, §4, §5

[13] = system: U87MG glioma cells; test: Western immunoblot for cleaved PARP; type: cell-based; conditions: riluzole 10, 25 or 50 μM for 4 days versus NT or vehicle
[14] = system: C8161 xenografts; test: Murine xenograft model, cleaved caspase-3 immunohistochemistry; type: in vivo, nude mice
Experimental: hGRM-positive C8161 cells (1×10^6) were injected into the flanks of 6-week-old nude mice (Taconic). […] At 24, 48, and 72 hours after the second dose of irradiation, mice in each group were sacrificed and tumor samples were removed. Half of the samples were snap-frozen for further molecular studies, and the other half was fixed in formalin for histologic analysis. The antibody to activated caspase-3 was utilized to visualize apoptotic cells. The average number of apoptotic cells per tumor was calculated by counting the apoptotic cells in 10 random highpowered fields.
Cleaved caspase-3 immunohistochemistry. Immunodeficient nude mice were purchased from Taconic. C8161 cells were injected into flanks bilaterally at 10^6 cells per site. Tumor size was measured with a vernier caliper. When tumor volumes reached 6 to 10 mm^3 the mice were randomly grouped into various treatments. Each treatment group consisted of 10 mice. […] At 24, 48, and 72 hours after the second dose of irradiation, mice in each group were sacrificed and tumor samples were removed. Half of the samples were snap-frozen for further molecular studies, and the other half was fixed in formalin for histologic analysis. The antibody to activated caspase-3 was utilized to visualize apoptotic cells.

C=C1C[C@@H]2COC(=O)[C@]2(Cc2ccc3ccccc3c2)C1 [BAY 36-7620]
G2/M synchronization ([1]; treatment of C8161 cells with the compound): no G2/M synchronization

Nc1nc2ccc(OC(F)(F)F)cc2s1 [Riluzole, riluzole]
ROS (oxidation of fluorochrome fluorescence) [2]: enhanced ROS
ROS (oxidation of fluorochrome fluorescence) [3]: enhanced ROS
effect of the combination on growth of xenografts ([4]; riluzole (10 mg/kg) plus IR, 25 days of treatment): at least an additive effect
DNA damage as measured by foci of gH2AX on immunohistochemistry ([4]; xenograft harvests, riluzole plus irradiation): markedly enhanced DNA damage
levels of cleaved PARP [5]: identical results
co-localization of γ-H2AX and 53BP1 (immunofluorescence) [6]: Co-localization was demonstrated
γ-H2AX Western blot (DNA damage) ([6]; cell lysates): caused DNA damage
levels of cleaved PARP [7]: identical results
53BP1 and γ-H2AX foci (DNA double stranded breaks) [8]: induction of clear nuclear 53BP1 and γ-H2AX foci
53BP1 and γ-H2AX foci (DNA double stranded breaks) [9]: not vector controls
levels of cleaved PARP [10]: further augmented levels of cleaved PARP
dose-modifying factor (DMF) [11]: 1.48
dose-modifying factor (DMF) [12]: 1.30
levels of cleaved PARP [13]: higher levels of cleaved PARP
number of apoptotic tumor cells (immunohistochemistry) ([14]; riluzole 10 mg/kg oral gavage plus 2 x 4 Gy irradiation versus irradiation alone or control groups, P<0.001): significant increase
number of apoptotic tumor cells (immunohistochemistry) ([14]; riluzole plus irradiation versus riluzole alone, 24- and 48-hour time points, P<0.01): significant difference
Sub G1 ([1]; Radiation followed by Riluzole): 24.91
Sub G1 ([1]; Riluzole followed by Radiation): 3.59
G2/M fraction ([1]; cells treated with riluzole prior to irradiation): clear spike in the G2/M fraction
G2/M fraction ([1]; reverse sequence (irradiation before riluzole)): no such effect

From US12318449B2 (Rutgers, The State University of New Jersey, priority 2012, dated 2025)
